Values quoted from earlier work in patent US20010000228A1, “Use of a modified baculovirus containing exogenous nucleic acid for the manufacture of a medicament for delivering said nucleic acid to the hepatocytes” (IMPERIAL COLLEGE INNOVATIONS LIMITED, priority 1997, published 2001).

Test system: HBV
Settings: therapy against HBV

In the case of Interferon α, the “cases in which therapy is effective” value is given as “around 30%”.
